{
  "source": "patent US20260168007A1",
  "about": "“Methods and Devices for Detecting Mechanical Forces Using Cas Nuclease and Guide RNA Complexes” (Emory University, priority 2022, published 2026)",
  "key": {"human platelets": {"test_system": "human platelets", "experiment": "MCATS assay of human platelet forces on Ttol=12 pN surface", "procedure": "Each drug was incubated for 30 min prior to seeding. Mechano-IC50 was calculated by fitting a plot to a standard dose-response function: Signal=Bottom+(Top-Bottom)/(1+([drug]/IC50).\nPlatelet-rich plasma (PRP) is prepared by centrifugation and separation from whole blood. Then platelets rich plasma was separated and centrifuged a second time with apyrase and resuspended in Tyrode's solution, which is isotonic with interstitial fluid, contains magnesium, and uses bicarbonate and phosphate as a buffer. Apyrase is important in the platelets purification process to prevent hemolysis caused platelets aggregation. MCATS was tested as a function of the number of platelets seeded on the Ttol=12pN surface (FIG. 3A). […]\nMCATS assay was performed on the prepared biotin surface as described in the surface preparation section. […] Surfaces with exposed activator were imaged directly with fluorescence microscopy for high resolution characterization and quantification. […] After 1 h of incubation, fluorescence intensities on 96 well plates were measured with a plate reader (Ex/Em=540/590 nm for reporter channel).\nFor platelet MCATS measurements, human platelets were purified and incubated at room temperature for at least 30 min before beginning experiments. […] The same MCATS protocols were followed to achieve amplification and quantification for platelets."}, "NIH/3T3 cells": {"test_system": "NIH/3T3 cells", "experiment": "MCATS assay of integrin-mediated forces in NIH/3T3 cells, plate reader readout", "assay_type": "cell-based", "conditions": "NIH/3T3 cells pretreated 30 min, 0-50 μM", "method": "The values were normalized to the signal obtained from the 25,000 cells/well samples without drug treatment. All measurements were background subtracted using negative control wells lacking cells.\nConsidering that receptor mediated tension plays an important role in cell function, quantifying molecular forces of cell in a rapid fashion facilitates applications such as screening dose-response curves for drugs that modulate cell mechanics. Experiments were performed to determine whether MCATS can be used to produce a dose response curve for NIH-3T3 cell incubated with Rho kinase inhibitor, Y-27632, which targets the phosphorylation of myosin light chain and therefore dampens forces transmitted by focal adhesions. NIH/3T3 cells were pretreated with a range of Y-27632 concentrations (0-50 μM) for 30 min. MCATS was ran with the drug treated cell.\nThe wells were washed with 1×PBS."}},
  "data": [
    {"smiles": "Nc1ncnc2c1ncn2[C@@H]1O[C@H](COP(=O)(O)OP(=O)(O)O)[C@@H](O)[C@H]1O", "note": "[ADP]", "values": [
      {"measurement": "MCATS tension signal, dose-response to agonist", "setting": "human platelets", "result": "Increasing tension signal"}
    ]},
    {"smiles": "C[C@@H](N)[C@H]1CC[C@H](C(=O)Nc2ccncc2)CC1", "note": "[Y-27632]", "values": [
      {"measurement": "MCATS signal as a function of drug concentration", "setting": "NIH/3T3 cells", "result": "dose-dependent reduction"}
    ]}
  ]
}
